Laboratory results published in ChEMBL document CHEMBL3885861, “Open TG-GATES”.

Species on record: Rattus norvegicus
Experiment: Open TG-GATES - Regimen: Single
Format: toxicity, organism-based, Sprague-Dawley
Parameters: regimen Single, gender Male, age 6 weeks
Settings: in vivo, po, 100 mg/kg, route gavage, dose level Low; for APTT / Bas / Eos / Fbg / Hb / Ht / Lym / MCH / MCHC / MCV / Mono / Neu / PT / Plat / RBC / Ret / WBC: tissue Blood; for KIDNEY_L / KIDNEY_R / KIDNEY_TOTAL: tissue Kidney; for LIVER: tissue Liver; for A/G / ALP / ALT / AST / BUN / CRE / Ca / Cl / DBIL / GLC / IP / K / LDH / Na / PL / RALB / TBIL / TC / TG / TP / gamma-GTP: tissue Plasma

With O=C(O)c1cc(/N=N/c2ccc(S(=O)(=O)Nc3ccccn3)cc2)ccc1O [SULFASALAZINE] the TERMINAL_BW (3 h) was 211 g, the APTT (3 h) was 19.2 s and the Bas (3 h) was 0%. For the same compound, the Eos (3 h) was 1%, the Fbg (3 h) was 216.6 mg/dL and the Hb (3 h) was 13 g/dL. It also gave a Ht (3 h) of 38.4%, a Lym (3 h) of 77.2% and an MCH (3 h) of 21.5 pg. It also gave an MCHC (3 h) of 33.9%, an MCV (3 h) of 63.4 fL and a Mono (3 h) of 2.4%. For the same compound, the Neu (3 h) was 18.6%, the PT (3 h) was 12.5 s and the Plat (3 h) was 129.8 x10_4/uL. For the same compound, the RBC (3 h) was 605.4 x10_4/ul, the Ret (3 h) was 7.1% and the WBC (3 h) was 92.9 x10_2/uL. The KIDNEY_L (3 h) was 1 g, the KIDNEY_R (3 h) was 0.9 g and the KIDNEY_TOTAL (3 h) was 1.9 g. For the same compound, the LIVER (3 h) was 10.2 g, the A/G (3 h) was 1.6 and the ALP (3 h) was 984.8 IU/L. The ALT (3 h) was 37.4 IU/L, the AST (3 h) was 69.4 IU/L and the BUN (3 h) was 11 mg/dL. It also gave a CRE (3 h) of 0.4 mg/dL, a Ca (3 h) of 10.6 mg/dL and a Cl (3 h) of 102.2 meq/L. For the same compound, the DBIL (3 h) was 0.068 mg/dL, the GLC (3 h) was 201.8 mg/dL and the IP (3 h) was 9.5 mg/dL. It also gave a K (3 h) of 3.7 meq/L, an LDH (3 h) of 166.6 IU/L and a Na (3 h) of 140.8 meq/L. For the same compound, the PL (3 h) was 148 mg/dL, the RALB (3 h) was 3.3 g/dL and the TBIL (3 h) was 0.1 mg/dL. It also gave a TC (3 h) of 80 mg/dL, a TG (3 h) of 59.4 mg/dL and a TP (3 h) of 5.4 g/dL. For the same compound, the gamma-GTP (3 h) was 1.2 IU/L, the TERMINAL_BW (6 h) was 210.8 g and the APTT (6 h) was 19 s. It also gave a Bas (6 h) of 0%, an Eos (6 h) of 1% and a Fbg (6 h) of 218.6 mg/dL. The Hb (6 h) was 13.2 g/dL, the Ht (6 h) was 38.5% and the Lym (6 h) was 73.6%. For the same compound, the MCH (6 h) was 21.9 pg, the MCHC (6 h) was 34.3% and the MCV (6 h) was 63.9 fL. It also gave a Mono (6 h) of 3%, a Neu (6 h) of 21.2% and a PT (6 h) of 12.7 s. For the same compound, the Plat (6 h) was 111 x10_4/uL, the RBC (6 h) was 603.2 x10_4/ul and the Ret (6 h) was 7.2%. For the same compound, the WBC (6 h) was 89.7 x10_2/uL, the KIDNEY_L (6 h) was 1 g and the KIDNEY_R (6 h) was 1 g. For the same compound, the KIDNEY_TOTAL (6 h) was 2 g, the LIVER (6 h) was 9.7 g and the A/G (6 h) was 1.6. It also gave an ALP (6 h) of 986.4 IU/L, an ALT (6 h) of 35.8 IU/L and an AST (6 h) of 68.4 IU/L. The BUN (6 h) was 10.2 mg/dL, the CRE (6 h) was 0.4 mg/dL and the Ca (6 h) was 10.6 mg/dL. It also gave a Cl (6 h) of 101.8 meq/L, a DBIL (6 h) of 0.066 mg/dL and a GLC (6 h) of 193.6 mg/dL. The IP (6 h) was 9.7 mg/dL, the K (6 h) was 3.9 meq/L and the LDH (6 h) was 198.6 IU/L. It also gave a Na (6 h) of 140.2 meq/L, a PL (6 h) of 148 mg/dL and an RALB (6 h) of 3.3 g/dL. The TBIL (6 h) was 0.1 mg/dL, the TC (6 h) was 76.6 mg/dL and the TG (6 h) was 61.2 mg/dL. It also gave a TP (6 h) of 5.4 g/dL, a gamma-GTP (6 h) of 1.6 IU/L and a TERMINAL_BW (9 h) of 204.7 g. The APTT (9 h) was 19.3 s, the Bas (9 h) was 0% and the Eos (9 h) was 1%. The Fbg (9 h) was 225.8 mg/dL, the Hb (9 h) was 13.2 g/dL and the Ht (9 h) was 38.8%. It also gave a Lym (9 h) of 82.4%, an MCH (9 h) of 21.4 pg and an MCHC (9 h) of 34%. For the same compound, the MCV (9 h) was 63 fL, the Mono (9 h) was 3.4% and the Neu (9 h) was 12.4%. The PT (9 h) was 12.8 s, the Plat (9 h) was 113 x10_4/uL and the RBC (9 h) was 616.6 x10_4/ul. For the same compound, the Ret (9 h) was 6.7%, the WBC (9 h) was 76.6 x10_2/uL and the KIDNEY_L (9 h) was 1 g. It also gave a KIDNEY_R (9 h) of 1 g, a KIDNEY_TOTAL (9 h) of 2 g and an LIVER (9 h) of 8.7 g. It also gave an A/G (9 h) of 1.6, an ALP (9 h) of 932.8 IU/L and an ALT (9 h) of 35.4 IU/L. For the same compound, the AST (9 h) was 63.8 IU/L, the BUN (9 h) was 9.4 mg/dL and the CRE (9 h) was 0.3 mg/dL. It also gave a Ca (9 h) of 10.6 mg/dL, a Cl (9 h) of 102.2 meq/L and a DBIL (9 h) of 0.068 mg/dL. It also gave a GLC (9 h) of 194.2 mg/dL, an IP (9 h) of 10.2 mg/dL and a K (9 h) of 3.8 meq/L. It also gave an LDH (9 h) of 198.8 IU/L, a Na (9 h) of 139.8 meq/L and a PL (9 h) of 145.4 mg/dL. It also gave an RALB (9 h) of 3.3 g/dL, a TBIL (9 h) of 0.1 mg/dL and a TC (9 h) of 83 mg/dL. For the same compound, the TG (9 h) was 41.6 mg/dL, the TP (9 h) was 5.5 g/dL and the gamma-GTP (9 h) was 1.2 IU/L. It also gave a TERMINAL_BW (24 h) of 221.5 g, an APTT (24 h) of 17.9 s and a Bas (24 h) of 0%. For the same compound, the Eos (24 h) was 1%, the Fbg (24 h) was 234.6 mg/dL and the Hb (24 h) was 13.2 g/dL. It also gave a Ht (24 h) of 38.5%, a Lym (24 h) of 81% and an MCH (24 h) of 21.2 pg. The MCHC (24 h) was 34.4%, the MCV (24 h) was 61.8 fL and the Mono (24 h) was 2.8%. It also gave a Neu (24 h) of 13.8%, a PT (24 h) of 12.5 s and a Plat (24 h) of 123 x10_4/uL. It also gave an RBC (24 h) of 624 x10_4/ul, a Ret (24 h) of 6.3% and a WBC (24 h) of 86.3 x10_2/uL. For the same compound, the KIDNEY_L (24 h) was 1 g, the KIDNEY_R (24 h) was 1 g and the KIDNEY_TOTAL (24 h) was 2 g. For the same compound, the LIVER (24 h) was 10.5 g, the A/G (24 h) was 1.6 and the ALP (24 h) was 1020.4 IU/L. It also gave an ALT (24 h) of 40.4 IU/L, an AST (24 h) of 64.6 IU/L and a BUN (24 h) of 15.2 mg/dL. It also gave a CRE (24 h) of 0.4 mg/dL, a Ca (24 h) of 10.8 mg/dL and a Cl (24 h) of 101.4 meq/L. It also gave a DBIL (24 h) of 0.092 mg/dL, a GLC (24 h) of 184 mg/dL and an IP (24 h) of 7.7 mg/dL. For the same compound, the K (24 h) was 4.1 meq/L, the LDH (24 h) was 213 IU/L and the Na (24 h) was 139.8 meq/L. The PL (24 h) was 158.2 mg/dL, the RALB (24 h) was 3.5 g/dL and the TBIL (24 h) was 0.1 mg/dL. The TC (24 h) was 79.6 mg/dL, the TG (24 h) was 88.8 mg/dL and the TP (24 h) was 5.7 g/dL. The gamma-GTP (24 h) was 1.6 IU/L.
